One may read the IC50 as the midpoint of a concentration-inhibition curve. A lower IC50 goes with inhibition by little substance.

The assay addresses T1, Endothelin-1 receptor (Mus musculus, UniProt Q61614).
T1 sequence (Q61614 whole entry): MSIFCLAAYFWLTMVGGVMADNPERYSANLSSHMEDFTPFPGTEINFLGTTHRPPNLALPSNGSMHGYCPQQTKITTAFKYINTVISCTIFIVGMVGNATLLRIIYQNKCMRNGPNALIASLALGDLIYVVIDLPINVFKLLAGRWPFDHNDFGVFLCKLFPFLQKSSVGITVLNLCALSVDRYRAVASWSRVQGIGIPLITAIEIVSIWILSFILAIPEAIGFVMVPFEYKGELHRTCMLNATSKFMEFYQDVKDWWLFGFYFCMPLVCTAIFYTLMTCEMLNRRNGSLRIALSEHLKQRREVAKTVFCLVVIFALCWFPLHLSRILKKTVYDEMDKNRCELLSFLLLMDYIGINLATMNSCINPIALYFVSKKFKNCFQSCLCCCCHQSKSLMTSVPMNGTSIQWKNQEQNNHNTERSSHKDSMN
In words: Binding affinity for Endothelin A receptor was determined in murine 3T3 cells. It counts as cell-based, NIH3T3.
On to `CC[C@H](C)[C@H](NC(=O)[C@H](CC(=O)O)NC(=O)[C@@H](N)CCCNC(=O)[C@H](Cc1ccccc1)NC(C)=O)C(=O)N[C@H](C(=O)N[C@@H](Cc1c[nH]c2ccccc12)C(=O)O)[C@@H](C)CC`, for which the IC50 was determined as 230 nM.

The molecule `CC[C@H](C)[C@H](NC(=O)[C@@H](NC(=O)[C@@H](CC(=O)O)NC(=O)[C@H](N)CCCNC(=O)[C@H](Cc1ccccc1)NC(C)=O)[C@@H](C)CC)C(=O)N[C@@H](Cc1c[nH]c2ccccc12)C(=O)O` displayed an IC50 of 250 nM.

`CC[C@H](C)[C@H](NC(=O)[C@H](CC(=O)O)NC(=O)[C@H](N)CCCNC(=O)[C@H](Cc1ccccc1)NC(C)=O)C(=O)N[C@@H](C(=O)N[C@@H](Cc1c[nH]c2ccccc12)C(=O)O)[C@@H](C)CC` returned an IC50 of 900 nM.

Source of the values: ChEMBL document CHEMBL1150490, “Endothelin eceptor Ligands. Multiple D-Amino acid replacement net approach” (Bioorg Med Chem Lett, 1993).
